We go through 33 compounds from patent publication US7300946B2, “N-(substituted arylmethyl)-4-(disubstituted methyl) piperidines and pyridines” (Bayer CropScience AG, priority 2002, dated 2007).

This experiment has as its system tobacco budworm (Heliothis virescens [Fabricius]). Description: surface-treated diet test against the tobacco budworm. It counts as in vivo. The note with it: tobacco budworm second instar larvae, surface-treated diet, 0.25 millimoles of candidate insecticide on the surface of the diet, five-day exposure; for Percent Mortality: compared to total number of insects infested; for Percent Growth Inhibition: inhibition of insect weight relative to untreated controls. The procedure: Candidate insecticides were evaluated for activity against the tobacco budworm (Heliothis virescens [Fabricius]) in a surface-treated diet test.
In this test one mL of molten (65–70° C.) wheat germ-based artificial diet was pipetted into each well of a four by six (24 well) multi-well plate (ID# 430345-15.5 mm dia.×17.6 mm deep; Corning Costar Corp., One Alewife Center, Cambridge, Mass. 02140). The diet was allowed to cool to ambient temperature before treatment with candidate insecticide.
For a determination of insecticidal activity, solutions of the candidate insecticides were prepared for testing using a Packard 204DT Multiprobe® Robotic System (Packard Instrument Company, 800 Research Parkway, Meriden, Conn. 06450), in which the robot first diluted a standard 50 millimolar DMSO solution of candidate insecticide with a 1:1 water/acetone solution (V/V) in a ratio of 1:7 stock solution to water/acetone. The robot subsequently pipetted 40 microliters of the so-prepared solution onto the surface of the diet in each of three wells in the 24 multi-well plate. The process was repeated with solutions of seven other candidate insecticides. Once treated, the contents of the multi-well plate were allowed to dry, leaving 0.25 millimoles of candidate insecticide on the surface of the diet, or a concentration of 0.25 millimolar. Appropriate untreated controls containing only DMSO on the diet surface were also included in this test. […]
In each well of the test plate was placed one second instar tobacco budworm larvea, each weighing approximately five milligrams. After the larvae were placed in each well, the plate was sealed with clear polyfilm adhesive tape. The tape over each well was perforated to ensure an adequate air supply. The plates were then held in a growth chamber at 25° C. and 60% relative humidity for five days (light 14 hours/day).
After the five-day exposure period insecticidal activity for each rate of application of candidate insecticide was assessed as percent inhibition of insect weight relative to the weight of insects from untreated controls, and percent mortality when compared to the total number of insects infested.
The test compounds of formula I are identified by numbers that correspond to those in Table 1.
These tests were conducted with 0.25 millimoles of candidate insecticide on the surface of the diet.

For the compound `FC(F)(F)c1ccc(C(=C2CCN(Cc3ccccc3)CC2)c2ccccc2)cc1` [Compound 30], the “Percent Mortality” value came to 100% and the “Percent Growth Inhibition” value amounted to 54%.

Turning to `Fc1ccc(C(=C2CCN(Cc3ccccc3)CC2)c2ccc(C(F)(F)F)cc2)cc1` [Compound 31], the “Percent Mortality” value was found to be 17% and the “Percent Growth Inhibition” value is reported as 99%.

For `COc1ccc(CN2CCC(=C(c3ccc(OC(F)(F)F)cc3)c3ccc(OC(F)(F)F)cc3)CC2)cc1` [Compound 42], the “Percent Mortality” value was determined as 100% and the “Percent Growth Inhibition” value is on record as 100%.

For the compound `CCCOc1ccc(CN2CCC(=C(c3ccc(O)cc3)c3ccc(O)cc3)CC2)cc1` [Compound 44], the “Percent Mortality” value came out at 67% and the “Percent Growth Inhibition” value is 100%.

Turning to `CCCOc1ccc(CN2CCC(=C(c3cccc(C(F)(F)F)c3)c3cccc(C(F)(F)F)c3)CC2)cc1` [Compound 45], the “Percent Mortality” value turned out to be 0% and the “Percent Growth Inhibition” value stood at 24%.

Take `CCCOc1ccc(CN2CCC(=C(c3cccc(OC(F)(F)F)c3)c3cccc(OC(F)(F)F)c3)CC2)cc1` [Compound 47]: the “Percent Mortality” value is given as 0% and the “Percent Growth Inhibition” value is 11%.

Take `CCCOc1ccc(CN2CCC(=C(c3ccc(OC(F)(F)F)cc3)c3ccc(OC(F)(F)F)cc3)CC2)cc1` [Compound 48]: the “Percent Mortality” value is 100% and the “Percent Growth Inhibition” value was 100%.

Regarding `CCOC(=O)c1ccc(CN2CCC(=C(c3ccc(C(F)(F)F)cc3)c3ccc(C(F)(F)F)cc3)CC2)cc1` [Compound 50], the “Percent Mortality” value is listed as 67% and the “Percent Growth Inhibition” value is listed as 96%.

As to `CC(C)OC(=O)c1ccc(CN2CCC(=C(c3ccc(C(F)(F)F)cc3)c3ccc(C(F)(F)F)cc3)CC2)cc1` [Compound 51], the “Percent Mortality” value is given as 0% and the “Percent Growth Inhibition” value stood at 26%.

As to `CC(=O)Nc1ccc(CN2CCC(=C(c3ccc(C(F)(F)F)cc3)c3ccc(C(F)(F)F)cc3)CC2)cc1` [Compound 52], the “Percent Mortality” value is listed as 33% and the “Percent Growth Inhibition” value came out at 100%.

With `O=C(Nc1ccc(CN2CCC(=C(c3ccc(C(F)(F)F)cc3)c3ccc(C(F)(F)F)cc3)CC2)cc1)C(F)(F)F` [Compound 53], the “Percent Mortality” value came to 0% and the “Percent Growth Inhibition” value is 100%.

Take `COC(=O)Nc1ccc(CN2CCC(=C(c3ccc(C(F)(F)F)cc3)c3ccc(C(F)(F)F)cc3)CC2)cc1` [Compound 54]: the “Percent Mortality” value turned out to be 100% and the “Percent Growth Inhibition” value is recorded as 100%.

Take `CCOC(=O)Nc1ccc(CN2CCC(=C(c3ccc(C(F)(F)F)cc3)c3ccc(C(F)(F)F)cc3)CC2)cc1` [Compound 55, N-{4-[(4-{bis[4-(trifluoromethyl)phenyl]methylene}piperidyl)methyl]phenyl}ethoxycarboxamide]: the “Percent Mortality” value is recorded as 100% and the “Percent Growth Inhibition” value was found to be 100%.

As for `CCOC(=O)N(C)c1ccc(CN2CCC(=C(c3ccc(C(F)(F)F)cc3)c3ccc(C(F)(F)F)cc3)CC2)cc1` [Compound 56], the “Percent Mortality” value is listed as 100% and the “Percent Growth Inhibition” value is 100%.

For `CCCOC(=O)Nc1ccc(CN2CCC(=C(c3ccc(C(F)(F)F)cc3)c3ccc(C(F)(F)F)cc3)CC2)cc1` [Compound 57], the “Percent Mortality” value is 100% and the “Percent Growth Inhibition” value worked out at 100%.

Take `CC(C)OC(=O)Nc1ccc(CN2CCC(=C(c3ccc(C(F)(F)F)cc3)c3ccc(C(F)(F)F)cc3)CC2)cc1` [Compound 58]: the “Percent Mortality” value is 100% and the “Percent Growth Inhibition” value is on record as 100%.

For the compound `CC(C)COC(=O)Nc1ccc(CN2CCC(=C(c3ccc(C(F)(F)F)cc3)c3ccc(C(F)(F)F)cc3)CC2)cc1` [Compound 59], the “Percent Mortality” value came out at 0% and the “Percent Growth Inhibition” value is 59%.

For `CCON=Cc1ccc(CN2CCC(=C(c3ccc(C(F)(F)F)cc3)c3ccc(C(F)(F)F)cc3)CC2)cc1` [Compound 60], the “Percent Mortality” value worked out at 100% and the “Percent Growth Inhibition” value was 100%.

For `FC(F)(F)c1ccc(C(=C2CCN(Cc3ccc(OCc4nccs4)cc3)CC2)c2ccc(C(F)(F)F)cc2)cc1` [Compound 61], the “Percent Mortality” value was found to be 100% and the “Percent Growth Inhibition” value is 100%.

For `Cn1nnc(-c2ccc(CN3CCC(=C(c4ccc(Cl)cc4)c4ccc(C(F)(F)F)cc4)CC3)cc2)n1` [Compound 74], the “Percent Mortality” value is 100% and the “Percent Growth Inhibition” value is given as 100%.

In the case of `Cn1nnc(-c2ccc(CN3CCC(=C(c4ccc(C(F)(F)F)cc4)c4ccc(C(F)(F)F)cc4)CC3)cc2)n1` [Compound 75], the “Percent Mortality” value is listed as 100% and the “Percent Growth Inhibition” value is on record as 96%.

For the compound `CCn1nnc(-c2ccc(CN3CCC(=C(c4ccccc4)c4ccc(Cl)cc4)CC3)cc2)n1` [Compound 76], the “Percent Mortality” value came to 0% and the “Percent Growth Inhibition” value was 91%.

Take `CCn1nnc(-c2ccc(CN3CCC(=C(c4ccc(Cl)cc4)c4ccc(Cl)cc4)CC3)cc2)n1` [Compound 77]: the “Percent Mortality” value is recorded as 100% and the “Percent Growth Inhibition” value is listed as 100%.

With `CCn1nnc(-c2ccc(CN3CCC(=C(c4ccc(F)cc4)c4ccc(F)cc4)CC3)cc2)n1` [Compound 78], the “Percent Mortality” value was 67% and the “Percent Growth Inhibition” value was 100%.

Turning to `CCn1nnc(-c2ccc(CN3CCC(=C(c4ccc(F)cc4)c4ccc(Cl)cc4)CC3)cc2)n1` [Compound 79], the “Percent Mortality” value amounted to 83% and the “Percent Growth Inhibition” value is given as 100%.

As for `CCn1nnc(-c2ccc(CN3CCC(=C(c4ccccc4)c4ccc(C(F)(F)F)cc4)CC3)cc2)n1` [Compound 80], the “Percent Mortality” value turned out to be 33% and the “Percent Growth Inhibition” value was 100%.

Take `CCn1nnc(-c2ccc(CN3CCC(=C(c4ccc(F)cc4)c4ccc(C(F)(F)F)cc4)CC3)cc2)n1` [Compound 81]: the “Percent Mortality” value turned out to be 100% and the “Percent Growth Inhibition” value stood at 100%.

`CCn1nnc(-c2ccc(CN3CCC(=C(c4ccc(C(F)(F)F)cc4)c4ccc(C(F)(F)F)cc4)CC3)cc2)n1` [Compound 82]: the “Percent Mortality” value came out at 100% and the “Percent Growth Inhibition” value is given as 100%.

`CCn1nnc(-c2ccc(CN3CCC(=C(c4ccc5c(c4)OC(F)(F)O5)c4ccc5c(c4)OC(F)(F)O5)CC3)cc2)n1` [Compound 83]: the “Percent Mortality” value came out at 100% and the “Percent Growth Inhibition” value came out at 100%.

Take `O=C(CCN1CCC(=C(c2ccccc2)c2ccccc2)CC1)c1ccccc1` [Compound 85]: the “Percent Mortality” value was 100% and the “Percent Growth Inhibition” value stood at 100%.

In the case of `[O-][N+]1(Cc2ccc(OCC3CC3)cc2)CCC(=C(c2ccc(C(F)(F)F)cc2)c2ccc(C(F)(F)F)cc2)CC1` (stereo not drawn) [Compound 98], the “Percent Mortality” value was 100% and the “Percent Growth Inhibition” value stood at 100%.

Take `CCOC(=O)c1ccc(C[N+]2([O-])CCC(=C(c3ccc(C(F)(F)F)cc3)c3ccc(C(F)(F)F)cc3)CC2)cc1` (stereo not drawn) [Compound 99]: the “Percent Mortality” value was determined as 100% and the “Percent Growth Inhibition” value amounted to 100%.

Turning to `CC(C)OC(=O)c1ccc(C[N+]2([O-])CCC(=C(c3ccc(C(F)(F)F)cc3)c3ccc(C(F)(F)F)cc3)CC2)cc1` (stereo not drawn) [Compound 100], the “Percent Mortality” value is on record as 100% and the “Percent Growth Inhibition” value was 100%.
